Reference: patent US20250144067A1, “PERSONALIZED STARVATION THERAPY FOR CANCER” (Faeth Therapeutics, Inc., priority 2021, published 2025)
Where a name gives a salt, the structure may show the parent alone. Read-outs that look alike come from different tables or passages of the source.

Assays:
[1] = tested on: NCI-H292 lung cancer cells; test: FDA drug screening, complete media vs cholesterol-free media without statin (TABLE 1); format: cell-based, human
[2] = tested on: NCI-H292 lung cancer cells; test: FDA drug screening, complete media vs cholesterol-free media with simvastatin (TABLE 2); format: cell-based, human
[3] = Complete minus Cholesterol-free, >0 enhanced anti-cancer activity, about 0 neutral, <0 antagonist
[4] = NCI-H292 cells, cholesterol-free media without statin
[5] = NCI-H292 cells, FDA library drug in cholesterol-free media with simvastatin 0.04 μM
[6] = NCI-H292 cells, FDA library drug in complete media
[7] = complete media vs cholesterol-free media + simvastatin (0.04 μM), >0 enhanced anti-cancer activity, about 0 neutral, <0 antagonist
[8] = NCI-H292 cells, cholesterol-free media without statin, FDA drug library screen
[9] = NCI-H292 cells, complete media, FDA drug library screen
[10] = NCI-H292 cells, drug in cholesterol-free media with simvastatin 0.04 μM
[11] = NCI-H292 cells, drug in complete media
[12] = Complete minus Cholesterol-free, […]
[13] = NCI-H292 cells, FDA drug library screen, cholesterol-free media without statin
[14] = NCI-H292 cells, FDA drug library screen, complete media
[15] = NCI-H292 cells, cholesterol-free media with simvastatin 0.04 μM, FDA drug library screen (TABLE 2)
[16] = NCI-H292 cells, complete media, FDA drug library screen (TABLE 2)
[17] = complete media minus cholesterol-free media + simvastatin (0.04 μM), […]
[18] = complete vs cholesterol-free media, greater than 0 enhanced anti-cancer activity, about 0 neutral, below 0 antagonists
[19] = Complete minus Cholesterol-free, greater than 0 enhanced anti-cancer activity, about 0 neutral, below 0 antagonists
[20] = NCI-H292 cells in cholesterol-free media without statin
[21] = NCI-H292 cells in complete media
[22] = complete media minus cholesterol-free media + simvastatin, >0 enhanced anti-cancer activity, about 0 neutral, <0 antagonist

For CCCCCOC(=O)Nc1nc(=O)n([C@@H]2O[C@H](C)[C@@H](O)[C@H]2O)cc1F [Capecitabine], the Difference [1, 3] was −0.20, the Cholesterol-free [1, 4] was 1.138 and the Complete ([1]; NCI-H292 cells, complete media) was 0.9364. For the same compound, the “Cholesterol-free media + simvastatin (0.04 μM)” value [2, 5] was 1.236, the “Complete Media” value [2, 6] was 0.648 and the Difference [2, 7] was −0.59.

With O=C(O)COCCN1CCN([C@H](c2ccccc2)c2ccc(Cl)cc2)CC1 [Levocetirizine (dihydrochloride)] the Difference [1, 3] was 0.02, the Cholesterol-free [1, 8] was 0.8691 and the Complete [1, 9] was 0.8901. For the same compound, the “Cholesterol-free media + simvastatin (0.04 μM)” value [2, 10] was 1.115, the “Complete Media” value [2, 11] was 0.8515 and the Difference [2, 7] was −0.26.

Dimemorfan (phosphate) gave a Difference [1, 12] of −0.08, a Cholesterol-free [1, 13] of 0.9351 and a Complete [1, 14] of 0.8552. The “Cholesterol-free media + simvastatin (0.04 μM)” value [2, 15] was 0.9385, the “Complete Media” value [2, 16] was 0.8687 and the Difference [2, 17] was −0.07.

In the case of CC(C)OC(=O)[C@H](C)N[P@](=O)(CO[C@H](C)Cn1cnc2c(N)ncnc21)Oc1ccccc1 [Tenofovir alafenamide fumarate], the Cholesterol-free [1] is reported as 0.8261, the Complete [1] is reported as 0.7078 and the Difference [1] is reported as −0.12. The “Cholesterol-free media + simvastatin (0.04 μM)” value [2] was 0.9223, the “Complete Media” value [2] was 0.8712 and the Difference [2] was −0.05.

Compound CC(/C=C/C=C(\C)C(=O)O[C@@H]1O[C@H](CO[C@@H]2O[C@H](CO)[C@@H](O)[C@H](O)[C@H]2O)[C@@H](O)[C@H](O)[C@H]1O)=C\C=C\C=C(C)\C=C\C=C(/C)C(=O)O[C@@H]1O[C@H](CO[C@@H]2O[C@H](CO)[C@@H](O)[C@H](O)[C@H]2O)[C@@H](O)[C@H](O)[C@H]1O [Crocin] has a Difference ([1]; Complete minus Cholesterol-free, greater than 0 enhanced anti-cancer activity, about 0 neutral, below 0 antagonist) of −0.11, a Cholesterol-free [1, 13] of 1.099 and a Complete [1, 14] of 0.9914. For the same compound, the “Cholesterol-free media + simvastatin (0.04 μM)” value [2, 10] was 1.135, the “Complete Media” value [2, 11] was 0.9252 and the Difference [2, 7] was −0.21.

Bismuth subgallate was tested, and the Difference [1, 12] was −0.19, the Cholesterol-free [1, 4] was 1.126 and the “Cholesterol-free media + simvastatin (0.04 μM)” value [2, 15] was 1.033. The “Complete Media” value [2, 16] was 0.9832 and the Difference [2, 17] was −0.05.

In the case of N[C@H](CS)C(=O)O [D-Cysteine], the Cholesterol-free [1, 4] is reported as 1.1, the Complete ([1]; NCI-H292 cells, complete media) is reported as 0.7316 and the Difference [1, 18] is reported as −0.37. The “Cholesterol-free media + simvastatin (0.04 μM)” value [2, 10] was 1.145, the “Complete Media” value [2, 11] was 0.9078 and the Difference [2, 7] was −0.24.

In the case of OCCN(CCO)c1nc(N2CCCCC2)c2nc(N(CCO)CCO)nc(N3CCCCC3)c2n1 [Dipyridamole], the Difference [1, 19] is reported as −0.51, the Cholesterol-free [1, 20] is reported as 1.48 and the Complete [1, 21] is reported as 0.9729. For the same compound, the “Cholesterol-free media + simvastatin (0.04 μM)” value ([2]; NCI-H292 cells, cholesterol-free media with simvastatin 0.04 μM, cell growth value in FDA drug screen) was 0.9652, the “Complete Media” value ([2]; NCI-H292 cells, complete media, cell growth value in FDA drug screen) was 1.095 and the Difference [2, 22] was 0.13.

Work on C=CCc1ccc(O)c(OC)c1 [Eugenol] yielded a Cholesterol-free [1, 4] of 1.418, a Complete ([1]; NCI-H292 cells, complete media) of 1.048 and a Difference [1, 18] of −0.37. For the same compound, the “Cholesterol-free media + simvastatin (0.04 μM)” value ([2]; NCI-H292 cells, FDA drug library screen, cholesterol-free media with simvastatin 0.04 μM) was 0.8347, the “Complete Media” value [2, 14] was 1.009 and the Difference [2, 22] was 0.17.

In the case of CC(C)OC(=O)OCOP(=O)(CO[C@H](C)Cn1cnc2c(N)ncnc21)OCOC(=O)OC(C)C [Tenofovir (Disoproxil)], the Difference [1, 19] is reported as −0.65, the Cholesterol-free [1, 20] is reported as 1.348 and the Complete [1, 21] is reported as 0.7009. The “Cholesterol-free media + simvastatin (0.04 μM)” value [2, 5] was 1.242, the “Complete Media” value [2, 6] was 0.9076 and the Difference [2, 7] was −0.33.

With C=C1c2cccc(O)c2C(=O)C2=C(O)[C@]3(O)C(=O)C(C(N)=O)=C(O)[C@@H](N(C)C)[C@@H]3[C@@H](O)[C@H]12 [Methacycline (hydrochloride)] the Difference [1, 19] was −0.57, the Cholesterol-free [1, 20] was 1.479 and the Complete [1, 21] was 0.9047. The “Cholesterol-free media + simvastatin (0.04 μM)” value [2, 5] was 1.315, the “Complete Media” value [2, 6] was 0.995 and the Difference [2, 7] was −0.32.

With Rilmenidine (hemifumarate) the Cholesterol-free [1, 4] was 1.211, the Complete ([1]; NCI-H292 cells, complete media) was 0.771 and the Difference ([1]; complete vs cholesterol-free media, […]) was −0.44. For the same compound, the “Cholesterol-free media + simvastatin (0.04 μM)” value [2, 5] was 1.87, the “Complete Media” value [2, 6] was 1.431 and the Difference ([2]; complete media vs cholesterol-free media + simvastatin (0.04 μM), […]) was −0.44.

Compound CC(C)N(CCNC(=O)CN1CCCC1=O)C(C)C [Pramiracetam] has a Difference [1, 12] of −0.05, a Cholesterol-free [1, 8] of 1.059 and a Complete [1, 9] of 1.007. For the same compound, the “Cholesterol-free media + simvastatin (0.04 μM)” value ([2]; NCI-H292 cells, cholesterol-free media with simvastatin 0.04 μM, […]) was 0.8266, the “Complete Media” value ([2]; NCI-H292 cells, complete media, […]) was 0.938 and the Difference ([2]; complete media minus cholesterol-free media + simvastatin, […]) was 0.11.

Compound Cc1ccc(-c2ncc(Cl)cc2-c2ccc(S(C)(=O)=O)cc2)cn1 [Etoricoxib] has a Cholesterol-free [1, 8] of 1.045, a Complete [1, 9] of 1.321 and a Difference ([1]; complete vs cholesterol-free media, >0 enhanced anti-cancer activity, about 0 neutral, <0 antagonist) of 0.28. The “Cholesterol-free media + simvastatin (0.04 μM)” value [2, 15] was 1.501, the “Complete Media” value [2, 16] was 1.49 and the Difference ([2]; complete media minus cholesterol-free media + simvastatin (0.04 μM), >0 enhanced anti-cancer activity, about 0 neutral, <0 antagonist) was −0.01.
